Data as given in patent publication US11213509B2, “Compositions and methods for treating traumatic brain injury” (Ischemix, LLC, priority 2017, dated 2022).

Assays:
[1] = tested on: mitochondrial bioenergetics; experiment: Mitochondrial respiration (respiratory control ratio) 24 hours post-CCI, focal TBI model in piglets; assay type: in vivo
Method: (§1) Study Design: A blinded, placebo controlled proof of concept trial of CMX-2043 was conducted in four-week-old piglets (8-10 kg). […] Sixteen piglets (n=16) were designated into three cohorts: 1) Controlled cortical impact (CCI) at the rostral gyrus treated with a bolus of CMX-2043 (n=5), 2) CCI injured animals treated with placebo (n=5) and 3) sham animals (n=6). CMX-2043 treated animals received an intravenous loading bolus of CMX-2043 (13.4 mg/kg) 1 hour post-TBI and a 4.5 mg/kg bolus at 13 hours post-TBI. Subjects were intubated, ventilated and anesthesia maintained on isoflurane (1.0%). Buprenorphine (0.02 mg/kg IM) was administered for analgesia immediately following intubation. Monitors recorded oxygen saturation, heart rate, respiration rate, rectal temperature, and end tidal CO2. […] All piglets were sacrificed between 24-25 hours post-TBI.
Mitochondrial Respiration and ROS Production: Twenty four hours post-CCI the ipsilateral penumbra and mirrored contralateral cortex were harvested. The rate of oxygen consumption was recorded via high-resolution Oroboros Oxygraph-2k™ with a specific Substrate-Uncouple-Inhibitor-Titration Protocol (SUIT). […] Maximal reserve capacity of the electron transfer system (ETSCI+CII) was measured by titrating the protonophore carbonyl cyanide p-(trifluoro-methoxy) phenylhydrazone (FCCP). […]

[2] = Body weight change, fluid percussion model of diffused TBI; assay type: in vivo, rat; details: 7.5, 15, 30, 45 mg/kg i.v. vs vehicle; 28 days
Method: On the day before TBI surgery (Day −1), rats were anesthetized with 3% isoflurane in a mixture of nitrous oxide and oxygen (2:1) for induction of anesthesia and then maintained at 1-3% isoflurane in a mixture of nitrous oxide and oxygen (2:1). The surgical site skin was shaved, and the rat was then placed in a stereotaxic frame. Buprenorphine SR, s.c, (0.9-1.2 mg/kg Zoopharm: Lot: BSR1-142111) and Cefazolin, i.p., (40-50 mg/kg; Hospira: Lot: 101D032) was given at this time. The skull was exposed through a midline incision. A parasagittal craniotomy (5 mm) using a trephine drill was performed at 1 mm posterior to bregma and 1 mm lateral to the midline (outer circumference). […]
On the day of TBI surgery (Day 0), rats were re-anesthetized with 3% isoflurane in a mixture of nitrous oxide and oxygen (2:1), intubated, connected to a respirator and ventilated with 1-2% isoflurane in a mixture of nitrous oxide and oxygen (2:1). […] The amplitude of the resulting pressure pulse was measured in atmospheres by a pressure transducer. […]
Dosing solutions were prepared in a blinded fashion with H, I, M, O and Z labels ready to use. […]
All data were expressed as mean S.E.M. Behavioral data and weight were analyzed by repeated measures of ANOVA and/or ANCOVA. […]

[3] = tested on: protein carboxylation; experiment: Protein carboxylation by ELISA, focal TBI model in piglets; assay type: in vivo; details: cortical penumbra, ipsilateral; vs placebo, p<0.01
Method: as §1
Samples from the same ipsilateral region that were analyzed for mtROS were analyzed for oxidative damage by measuring protein carboxylation (VWR Int'l), and compared to placebo and shams.

CC(NC(=O)C(CCC(=O)O)NC(=O)CCCCC1CCSS1)C(=O)O [CMX-2043, N—(R)-lipoyl-glutamylalanine]
Respiratory control ratio (RCR; OXPHOS CI+CII/LEAK CI+CII) ([1]; contralateral cortex, P=0.09 vs placebo): 11.05±1.71 | Respiratory control ratio (RCR; OXPHOS CI+CII/LEAK CI+CII) ([1]; ipsilateral cortex, i.v. 13.4 mg/kg at 1 hour and 4.5 mg/kg at 13 hours post-TBI, p<0.05 vs placebo): 11.61±2.28 | Body weight over time [2]: no significant differences | Protein carboxylation (ELISA) [3]: significant reduction in protein carboxylation
